Test results taken from paper PMC10471714, “G6PDi-1 is a Potent Inhibitor of G6PDH and of Pentose Phosphate pathway-dependent Metabolic Processes in Cultured Primary Astrocytes” (Neurochemical Research, 2023).

What was measured:
[1] = target: T1, G6PDH (glucose-6-phosphate dehydrogenase) (Rattus norvegicus, UniProt P05370); test: NADPH absorbance at […] nm in astrocyte lysate; assay type: biochemical; conditions: 3.3 mM G6P, 0.2 mM NADP+, 6.3 mM MgCl2, 5 mM maleimide, pH 7.5, room temperature; read-out: half-maximal inhibition
T1 construct: gene G6pdx; native cytosolic enzyme in soluble lysate supernatant of primary astrocyte-rich cultures; not purified

[2] = target: T2, 6PGDH (6-phosphogluconate dehydrogenase) (Rattus norvegicus, UniProt P85968); test: NADPH absorbance at […] nm in astrocyte lysate; assay type: biochemical
T2 construct: gene Pgd; native cytosolic enzyme in soluble lysate supernatant of primary astrocyte-rich cultures; not purified
T2 sequence (P85968 2-483): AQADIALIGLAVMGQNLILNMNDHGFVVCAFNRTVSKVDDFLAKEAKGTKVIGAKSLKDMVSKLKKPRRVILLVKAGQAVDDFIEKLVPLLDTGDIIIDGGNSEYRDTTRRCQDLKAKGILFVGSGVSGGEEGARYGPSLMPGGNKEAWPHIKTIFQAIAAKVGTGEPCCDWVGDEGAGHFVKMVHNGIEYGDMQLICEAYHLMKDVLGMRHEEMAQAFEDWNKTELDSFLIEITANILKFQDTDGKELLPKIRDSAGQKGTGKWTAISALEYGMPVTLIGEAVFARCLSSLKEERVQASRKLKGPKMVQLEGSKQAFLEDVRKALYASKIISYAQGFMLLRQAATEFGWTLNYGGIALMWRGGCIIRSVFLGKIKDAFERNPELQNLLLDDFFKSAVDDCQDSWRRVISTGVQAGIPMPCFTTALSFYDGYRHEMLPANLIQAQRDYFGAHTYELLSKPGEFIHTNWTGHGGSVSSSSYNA

T1 sequence (P05370 2-515): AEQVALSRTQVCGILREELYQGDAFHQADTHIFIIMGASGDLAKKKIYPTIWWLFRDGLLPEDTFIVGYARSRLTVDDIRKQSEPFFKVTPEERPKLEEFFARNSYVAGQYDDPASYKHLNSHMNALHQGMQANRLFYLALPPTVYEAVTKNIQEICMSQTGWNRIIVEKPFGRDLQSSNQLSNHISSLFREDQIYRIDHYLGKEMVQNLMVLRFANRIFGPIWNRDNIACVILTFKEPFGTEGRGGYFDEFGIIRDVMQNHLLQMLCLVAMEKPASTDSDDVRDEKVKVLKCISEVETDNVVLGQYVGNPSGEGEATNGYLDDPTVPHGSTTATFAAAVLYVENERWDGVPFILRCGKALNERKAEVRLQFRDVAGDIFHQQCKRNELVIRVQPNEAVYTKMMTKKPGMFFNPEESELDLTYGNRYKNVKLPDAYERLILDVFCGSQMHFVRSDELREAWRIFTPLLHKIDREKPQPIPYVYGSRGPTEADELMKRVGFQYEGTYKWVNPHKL

| SMILES | IC50 [1] [µM] | inhibition at 100 µM [2] [%] |
| --- | --- | --- |
| C[C@]12CC[C@H](O)CC1=CC[C@@H]1[C@@H]2CC[C@]2(C)C(=O)CC[C@@H]12 [DHEA] | 9.2 ± 3.5 | – |
| N#Cc1cc(Nc2ncc3c(n2)CCCCC3=O)cs1 [G6PDi-1] | – | 15 |
